Measurements as given in US10550304B2, “Quaternary ammonium compounds and gas hydrate inhibitor compositions” (M-I DRILLING FLUIDS UK LIMITED, priority 2013, dated 2020).

How the values were obtained:
[1] = tested on: Skeletonema costatum; assay: Toxicity against Skeletonema costatum; format: cell-based; conditions: over 72 hours
Description: The toxicity of a quaternary ammonium compound or an LDHI composition comprising the quaternary ammonium compound may be evaluated by testing against Skeletonema costatum and determining EC50 values in the aquatic environment. Also the percentage biodegradation may be measured after 28 days in seawater.
Toxicity was tested against Skeletonema costatum and EC50 values determined (over 72 hours).

[2] = Biodegradation in seawater, OECD TG 306 28 day method; conditions: OECD TG 306, 28 days
Description: Environmental experiments were performed to test biodegradation and toxicity. The biodegradation tests used the standard OECD Guideline for Testing of Chemicals TG 306 (Biodegradability in Seawater) 28 day method (version adopted 17 Jul. 1992) for testing biodegradation of chemicals in seawater.

Biodegradation after 28 days [2]: 11%
Compound: CCCCCCCCCCCCCC[P+](CCCC)(CCCC)CCCC.[Cl-] [TTPC, tributyl tetradecylphosphonium chloride]
EC50 [1]: 0.016 µg/mL
